In one data set the test system is NCI-H1975 xenograft. Description: Growth inhibition of NCI-H1975 xenograft in nude mice. Conditions: for T/C (%) / Tumor volume (mm^3) D 28: 5 consecutive days weekly for four weeks, D 28; for activity against NC1-H1975 (in words): tumor line with gene mutation, resistant to lapatinib. The format is in vivo. As to the method:
Administration route: intragastric administration. Administration volume: 0.1 ml/10 g. Administration and frequency: administrating for 5 consecutive days and suspending administration for two days weekly for four weeks. Observation time: continuous observation for 28 days after starting administration. The tumor volume was measured twice a week. At the end of the experiment, the animals were sacrificed, weighed and photographed. Statistical method: SPSS 10.0 statistical software package, one-factor analysis of variance.

In the next data set the target is ErbB-4 (Homo sapiens, UniProt Q15303). Description: ELISA protein tyrosine kinase inhibition, ErbB-4. The format is biochemical. The settings on record: for IC50: ELISA, Poly(Glu, Tyr) 4:1 substrate, ATP 5 μM, test samples at 10-5 mol/l, read-out: ErbB4 inhibitory activity (IC50 class). An excerpt: (§1) Determining the Effect of Test Samples at a Concentration of 10-5 Mol/l on the Activity of the Substrate Phosphoryation Catalyzed by EGFR (Epidermal Growth Factor Receptor 1), ErbB-2 (Epidermal Growth Factor Receptor 2), ErbB-4, KDR (Vascular Endothelial Growth Factor Receptor 2) Protein Tyrosine Kinases at Molecular Level
Sequence of ErbB-4 (Q15303 26-1308): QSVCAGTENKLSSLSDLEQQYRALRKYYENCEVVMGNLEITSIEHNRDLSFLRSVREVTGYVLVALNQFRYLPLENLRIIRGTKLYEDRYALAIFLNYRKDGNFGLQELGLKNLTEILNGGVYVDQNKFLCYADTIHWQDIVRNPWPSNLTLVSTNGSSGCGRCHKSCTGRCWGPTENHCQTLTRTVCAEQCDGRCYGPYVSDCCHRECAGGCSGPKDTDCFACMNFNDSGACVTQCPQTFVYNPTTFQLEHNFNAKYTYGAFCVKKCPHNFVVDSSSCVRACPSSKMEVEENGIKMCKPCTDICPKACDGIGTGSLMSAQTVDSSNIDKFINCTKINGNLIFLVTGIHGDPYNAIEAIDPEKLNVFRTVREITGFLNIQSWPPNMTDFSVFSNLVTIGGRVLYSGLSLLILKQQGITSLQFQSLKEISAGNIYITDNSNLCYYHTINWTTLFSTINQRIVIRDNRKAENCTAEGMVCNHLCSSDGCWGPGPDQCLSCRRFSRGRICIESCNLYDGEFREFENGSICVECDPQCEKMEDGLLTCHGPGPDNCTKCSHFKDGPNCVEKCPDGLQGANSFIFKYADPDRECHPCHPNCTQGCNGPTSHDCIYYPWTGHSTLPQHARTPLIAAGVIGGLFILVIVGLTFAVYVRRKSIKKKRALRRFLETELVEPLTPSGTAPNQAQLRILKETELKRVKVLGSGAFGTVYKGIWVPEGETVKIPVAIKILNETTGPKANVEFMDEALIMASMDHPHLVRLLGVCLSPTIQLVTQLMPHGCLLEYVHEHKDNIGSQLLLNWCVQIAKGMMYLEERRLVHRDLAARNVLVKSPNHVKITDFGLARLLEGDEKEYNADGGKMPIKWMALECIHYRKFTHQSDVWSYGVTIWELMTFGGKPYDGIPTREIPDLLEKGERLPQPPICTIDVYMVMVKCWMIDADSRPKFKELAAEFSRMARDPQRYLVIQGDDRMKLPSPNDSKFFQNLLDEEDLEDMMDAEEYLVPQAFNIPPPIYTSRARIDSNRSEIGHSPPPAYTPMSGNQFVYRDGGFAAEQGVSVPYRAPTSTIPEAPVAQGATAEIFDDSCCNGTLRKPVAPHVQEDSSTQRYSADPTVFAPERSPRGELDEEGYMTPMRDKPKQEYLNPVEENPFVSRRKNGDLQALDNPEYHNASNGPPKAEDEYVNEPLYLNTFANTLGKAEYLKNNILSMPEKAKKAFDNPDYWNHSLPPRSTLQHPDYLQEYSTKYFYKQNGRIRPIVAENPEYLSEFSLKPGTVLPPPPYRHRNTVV
(§2) Enzyme-Linked Immunosorbent Assay (ELISA)
(§3) Main instrument: wavelength-tunable microplate reader (VERSAmax).
(§4) Main reagents: kinase reaction substrate Poly(Glu, Tyr) 4:1 from Sigma; anti-phosphotyrosine monoclonal antibody PY99 from Santa Cruz; horseradish peroxidase-labeled goat anti-mouse IgG from Calbiochem; ATP, DTT, OPD from Amresco, and ELISA plate from Corning.
(§5) Poly(Glu, Tyr)4:1 as an enzyme substrate was diluted by potassium ion-free PBS into 20 μg/ml, and an ELISA plate was coated and subjected to reaction for 12-16 h at 37° C. After the liquid in wells was removed, the plate was washed three time by T-PBS, 5 min for each time. The ELISA plate was then dried in an oven at 37° C. The coated wells were added with the test samples: the test samples were prepared for a stock solution with a concentration of 1×10^−2M in DMSO. The aliquot solution was stored at −20° C., and diluted to the desired concentration with reaction buffer before use. The resulting solution was added into the wells so that the final concentration of 10-5 mol/l in 100 μL reaction system can be obtained. At the same time, a positive control well was set up and a positive control compound Su11248 was added. ATP and test tyrosine kinases were added: ATP solution diluted with reaction buffer was added (the final concentration of ATP is 5 μM). Finally, the test tyrosine kinases solution diluted with reaction buffer was added. The total volume of the reaction system was […]. Meanwhile, a negative control well and a control well without enzyme were set up. The reaction system was placed in a wet box, and shaked for 1 hour at 37° C., shielding from light. After the reaction was complete, the plate was washed by T-PBS three times. Antibody PY99 was added at 100 μL/well; and the plate was shaked for 30 min at 37° C. After the reaction was complete, the plate was washed with T-PBS three times. Horseradish peroxidase-labeled goat anti-mouse IgG was added at 100 μL/well, and the plate was shaked for 30 min at 37° C. The plate was washed with T-PBS three times. OPD developing liquid was added at 100 μL/well, and reacted for 1-10 min at room temperature, shielding from light. 50 μL of 2 M H2SO4 was added to stop the reaction. A492 value was determined using wavelength-tunable microplate reader. The inhibition ratio of the samples can be calculated by the following equation: […]
On the technique in general: An ELISA detects its analyte on a solid surface through an enzyme-linked reagent.

For data set [1], the target named is EGFR (Epidermal Growth Factor Receptor 1) (Homo sapiens, UniProt P00533). Description: ELISA protein tyrosine kinase inhibition, EGFR. The format is biochemical. The settings on record: for IC50: ELISA, Poly(Glu, Tyr) 4:1 substrate, ATP 5 μM, test samples at 10-5 mol/l, read-out: EGFR inhibitory activity (IC50 class).
Description: as §1, §2, §3, §4, §5

The target in data set [2] is KDR (Vascular Endothelial Growth Factor Receptor 2) (Homo sapiens, UniProt P35968). Put plainly: ELISA protein tyrosine kinase inhibition, KDR. The settings on record: for IC50: ELISA, Poly(Glu, Tyr) 4:1 substrate, ATP 5 μM, test samples at 10-5 mol/l, read-out: KDR inhibitory activity (IC50 class). The format is biochemical.
Sequence of KDR (Vascular Endothelial Growth Factor Receptor 2) (P35968 20-1356): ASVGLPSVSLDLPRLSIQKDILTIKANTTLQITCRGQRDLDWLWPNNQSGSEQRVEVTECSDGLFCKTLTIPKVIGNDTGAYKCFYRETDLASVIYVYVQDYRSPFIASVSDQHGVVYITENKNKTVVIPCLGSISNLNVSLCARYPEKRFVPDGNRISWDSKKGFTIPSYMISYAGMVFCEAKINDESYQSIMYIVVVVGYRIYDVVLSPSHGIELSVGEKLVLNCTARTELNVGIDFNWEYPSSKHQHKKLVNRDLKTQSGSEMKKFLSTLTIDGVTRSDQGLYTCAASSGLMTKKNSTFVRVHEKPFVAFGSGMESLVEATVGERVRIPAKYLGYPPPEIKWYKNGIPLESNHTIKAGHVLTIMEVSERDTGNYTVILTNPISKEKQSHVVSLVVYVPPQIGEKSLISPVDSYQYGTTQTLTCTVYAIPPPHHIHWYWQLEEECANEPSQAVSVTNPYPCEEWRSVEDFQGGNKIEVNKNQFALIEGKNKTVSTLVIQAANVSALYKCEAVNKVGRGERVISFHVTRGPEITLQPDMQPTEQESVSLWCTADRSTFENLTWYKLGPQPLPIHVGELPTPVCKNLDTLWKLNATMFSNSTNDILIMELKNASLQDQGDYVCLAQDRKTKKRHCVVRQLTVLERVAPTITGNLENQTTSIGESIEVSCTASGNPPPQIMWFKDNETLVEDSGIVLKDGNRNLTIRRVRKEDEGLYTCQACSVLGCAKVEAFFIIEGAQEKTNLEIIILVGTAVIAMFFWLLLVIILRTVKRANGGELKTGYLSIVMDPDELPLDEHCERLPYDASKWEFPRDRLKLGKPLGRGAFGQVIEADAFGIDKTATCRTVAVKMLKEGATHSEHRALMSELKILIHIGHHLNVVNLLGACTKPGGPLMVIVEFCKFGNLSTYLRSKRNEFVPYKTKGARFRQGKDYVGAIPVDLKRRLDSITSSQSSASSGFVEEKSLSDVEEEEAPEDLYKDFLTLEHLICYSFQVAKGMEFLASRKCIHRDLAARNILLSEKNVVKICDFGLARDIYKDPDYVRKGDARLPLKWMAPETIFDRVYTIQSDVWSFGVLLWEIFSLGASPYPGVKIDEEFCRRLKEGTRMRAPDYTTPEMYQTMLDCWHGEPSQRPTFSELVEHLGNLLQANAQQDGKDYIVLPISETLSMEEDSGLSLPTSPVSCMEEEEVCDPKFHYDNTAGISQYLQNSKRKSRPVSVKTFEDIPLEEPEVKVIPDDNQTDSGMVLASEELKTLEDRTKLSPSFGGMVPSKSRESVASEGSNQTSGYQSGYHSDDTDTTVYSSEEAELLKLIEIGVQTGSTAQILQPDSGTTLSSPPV
Description: as §1, §2, §3, §4, §5

Data set [3] deals with ErbB-2 (Epidermal Growth Factor Receptor 2) (Homo sapiens, UniProt P04626). Description: ELISA protein tyrosine kinase inhibition, ErbB-2. The format is biochemical. Conditions: Poly(Glu, Tyr) 4:1 substrate, ATP 5 μM, test samples at 10-5 mol/l, read-out: ErbB2 inhibitory activity (IC50 class).
Description: as §1, §2, §3, §4, §5

Data set [4] concerns human lung cancer A549 xenograft. Description: Growth inhibition of A549 xenograft in nude mice. Conditions: for TV (mm^3) End / TV (mm^3) Start / T/C (%): A549 xenograft; for TV (mm^3) End / TV (mm^3) Start / Weight (g) End / Weight (g) Start / T/C (%): 200 mg/kg intragastric; for TV (mm^3) End / Weight (g) End / T/C (%): 5 times per week for four weeks; for TV (mm^3) Start / Weight (g) Start: start of dosing; for Weight (g) End / Weight (g) Start: nude mice with A549 xenograft; for T/C (%): relative tumor growth ratio. The format is in vivo. An excerpt: Objective of the test: Determining the inhibition of some compounds of the present invention to the growth of human lung cancer A549 transplanted into nude mice and the action intensity thereof.
1. Human lung cancer A549 xenograft in nude mice, which was set up by subcutaneously transplantion of the human lung cancer A549 cell lines into right axillary fossa of nude mice. The amount of inoculation is 2×10^6 cells/mouse. Xenograft inoculated into the nude mice was passaged for 3 generations before use.
2. The solvent used in the experiments is: 0.5% of hydroxypropylmethyl cellulose and 0.1% of Tween-80.
3. Vigorous growing tumor tissues were selected to be chopped into approximately 1 mm^3. Under sterile conditions, the tumor tissue blocks were subcutaneously transplanted into right axillary fossa of nude mice. The diameters of the xenograft in nude mice were measured with a vernier caliper. When tumors reached approximately 100-300 mm^3 in size, the animals were randomly divided into groups, wherein there are 12 animals in solvent control group, and 6 animals per group in the other groups. […] The administered dosages were both 200 mg/kg, 5 times per week for consecutive four weeks. The diameters of the tumors were measured twice per week. The negative control group was intragastricly administrated the same amount of solvent. After the experiment, the mice were sacrificed. The tumors were surgically stripped and weighed. The tumor volume (TV) was calculated by the following equation:
[formula] in which a and b represents for the length and the width respectively.
According to the measured results, the relative tumor volume (RTV) was calculated. The calculation equation was: RTV=Vt/V0, wherein V0 is the tumor volume measured during cage administration (i.e. d0), Vt is the tumor volume of each measurement. The evaluation index of anti-tumor activity was the relative tumor growth ratio T/C (%), which was calculated by the following equation: […]
TRTV: treatment group's RTV; CRTV: negative control group's RTV.

Where [5] appears, read: NC1-H1975 xenograft, intragastric.

“Also recorded” adds a separate entry of the source.

Turning to `COc1cc2ncnc(Nc3ccc(F)c(Cl)c3)c2cc1OCCCN1CCOCC1` [Gefitinib], in the data set on NCI-H1975 xenograft (setting [5]), the “T/C (%)” value amounted to 87.89% and the “Tumor volume (mm^3) D 28” value is 2164.44 ± 1064.85 mm^3. Moreover, the “activity against NC1-H1975 (in words)” value in the data set with NCI-H1975 xenograft is on record as “almost no activity”.
Regarding `OCCN(CCO)Cc1ccc(-c2ccc3ncnc(Nc4ccc(OCc5cccc(F)c5)c(Cl)c4)c3c2)o1` [MS18·dimethanesulfonate, N-(3-chloro-4-((3-fluorobenzyl)oxy)phenyl)-6-(5-((bis(2-hydroxyethyl)amino)methyl)-2-furyl)-4-quinazolinamine], the IC50 (at ErbB-4; in data set [1]; in data set [2]; in data set [3]) was < 10 µM each time.
With `CS(=O)(=O)CCNCc1ccc(-c2ccc3ncnc(Nc4ccc(OCc5cccc(F)c5)c(Cl)c4)c3c2)o1` [Lapatinib, lapatinib, reference compound], in data set [4], the “TV (mm^3) End” value is reported as 943.2 ± 225.7^▴ mm^3, the “TV (mm^3) Start” value was 153.6 ± 64.8 mm^3, the “Weight (g) End” value is reported as 26.3 ± 3.3 g and the “Weight (g) Start” value came out at 24.1 ± 2.9 g. In addition, in the data set on NCI-H1975 xenograft (setting [5]), the “T/C (%)” value stood at 104.26% and the “Tumor volume (mm^3) D 28” value is listed as 2420.50 ± 1405.01 mm^3.
Regarding `OCC(O)CNCc1ccc(-c2ccc3ncnc(Nc4ccc(OCc5cccc(F)c5)c(Cl)c4)c3c2)o1` (stereo not shown) [MS31·dimethanesulfonate, N-(3-chloro-4-((3-fluorobenzyl)oxy)phenyl)-6-(5-((1-(2,3-dihydroxypropyl)amino)methyl)-2-furyl)-4-quinazolinamine], the IC50 (at ErbB-4; in data set [1]; in data set [2]; in data set [3]) was < 10 µM each time.
Turning to `CC(=O)OCCNCc1ccc(-c2ccc3ncnc(Nc4ccc(OCc5cccc(F)c5)c(Cl)c4)c3c2)o1`, the half-maximal inhibitory concentration (IC50) (at ErbB-4; in data set [1]; in data set [2]; in data set [3]) was < 10 µM in each case.
With “N-(3-chloro-4-((3-fluorobenzyl)oxy)phenyl)-6-(5-((morpholinyl)methyl)-2-thienyl)-4-quinazolinamine [MS 33]”, the “inhibition of c-ErbB4/HER4 (in words)” value against ErbB-4 is given as “very good inhibition”. In addition, the IC50 on ErbB-4 is < 10 µM; in data set [1] it was < 10 µM; in data set [2], > 10 µM; in data set [3], > 10 µM. For the same molecule, the “inhibitory activity against EGFR (in words)” value in data set [1] is “better inhibitory activity”.
As for `O=C(O)CCC(NCc1ccc(-c2ccc3ncnc(Nc4ccc(OCc5cccc(F)c5)c(Cl)c4)c3c2)o1)C(=O)O` (stereo not shown) [MS 23, N-(3-chloro-4-((3-fluorobenzyl)oxy)phenyl)-6-(5-(((1,3-dicarboxypropyl)amino)methyl)-2-furyl)-4-quinazolinamine], the IC50 at ErbB-4 was < 10 µM. In addition, in data set [1], the 50% inhibitory concentration (IC50) is < 10 µM. In addition, in data set [4], the “TV (mm^3) End” value was 804.3 ± 230.3^▴ mm^3, the “TV (mm^3) Start” value worked out at 153.5 ± 74.8 mm^3, the “T/C (%)” value was 38.2% and the “Weight (g) End” value worked out at 25.7 ± 2.0 g. In addition, in data set [4], the “Weight (g) Start” value turned out to be 25.3 ± 1.5 g. In addition, the “growth inhibition of human lung cancer A549 compared with positive control lapatinib (in words)” value in data set [4] (xenograft in nude mice, 200 mg/kg) is listed as “better effective inhibition; also recorded: better growth inhibition effect”. In data set [2], the “inhibitory activity against KDR (in words)” value is given as “better inhibitory activity; also recorded: higher inhibitory activity” and the concentration for half-maximal inhibition (IC50) is < 10 µM. In data set [3], the IC50 was < 10 µM.
On to `OCCNCc1ccc(-c2ccc3ncnc(Nc4ccc(OCc5cccc(F)c5)c(Cl)c4)c3c2)o1` [MS27·dimethanesulfonate, N-(3-chloro-4-((3-fluorobenzyl)oxy)phenyl)-6-(5-(((2-hydroxyethyl)amino)methyl)-2-furyl)-4-quinazolinamine], for which, at ErbB-4, the IC50 is < 10 µM. In addition, in data set [1], the IC50 is < 10 µM. For the same molecule, in data set [4], the “TV (mm^3) End” value is reported as 775.6 ± 215.4^▴ mm^3, the “TV (mm^3) Start” value is reported as 155.3 ± 71.2 mm^3, the “T/C (%)” value stood at 36.4% and the “Weight (g) End” value was found to be 25.6 ± 2.2 g. Also, in data set [4], the “Weight (g) Start” value amounted to 25.0 ± 2.7 g. The IC50 in data set [2] was < 10 µM. The IC50 in data set [3] is < 10 µM. Further, in the data set on NCI-H1975 xenograft (setting [5]), the “T/C (%)” value is recorded as 49.8^★ % and the “Tumor volume (mm^3) D 28” value is recorded as 1214.25 ± 944.16^★ mm^3. Also, the “Tumor volume (mm^3) D 0” value in the data set on NCI-H1975 xenograft (NC1-H1975 xenograft, intragastric, D 0) is 97.06 ± 38.91 mm^3. Further, the “activity against NC1-H1975 (in words)” value in the data set with NCI-H1975 xenograft is “good activity”.
For the molecule `OCCCCNCc1ccc(-c2ccc3ncnc(Nc4ccc(OCc5cccc(F)c5)c(Cl)c4)c3c2)o1` [MS1·dimethanesulfonate, N-(3-chloro-4-((3-fluorobenzyl)oxy)phenyl)-6-(5-(((4-hydroxybutyl)amino)methyl)-2-furyl)-4-quinazolinamine], the IC50 (at ErbB-4; in data set [1]; in data set [2]; in data set [3]) was < 10 µM each time.
`OCC(CO)NCc1ccc(-c2ccc3ncnc(Nc4ccc(OCc5cccc(F)c5)c(Cl)c4)c3c2)o1` [MS6·dimethanesulfonate, N-(3-chloro-4-((3-fluorobenzyl)oxy)phenyl)-6-((5-(2-(1,3-dihydroxypropyl)amino)methyl)-2-furyl)-4-quinazolinamine]: on ErbB-4, the IC50 is < 10 µM. Moreover, the half-inhibitory concentration (IC50) in data set [1] was < 10 µM. In addition, in data set [4], the “TV (mm^3) End” value was 844.5 ± 240.3^▴ mm^3, the “TV (mm^3) Start” value is 156.9 ± 64.5 mm^3, the “T/C (%)” value is given as 39.3% and the “Weight (g) End” value was found to be 25.2 ± 1.4 g. In addition, in data set [4], the “Weight (g) Start” value is 24.9 ± 1.3 g. For the same molecule, the IC50 in data set [2] is < 10 µM. Also, the half-inhibitory concentration (IC50) in data set [3] is < 10 µM.

Broadly, the IC50 is the concentration needed to halve the response being measured.
